{"source": "ChEMBL document CHEMBL1201862", "about": "“PubChem BioAssay data set” (2004)", "key": {"[1]": {"assay": "HEK293T cell cytotoxicity, dose response, cytotoxicity control, CellTiter-Glo luminescence, dry powder, set 2 (AID 720595)", "assay_type": "functional, cell-based", "conditions": "HEK293"}, "[2]": {"assay": "HepG2 hepatoma cell cytotoxicity, dose response, cytotoxicity control, CellTiter-Glo luminescence, dry powder, set 3 (AID 720594)", "assay_type": "functional, cell-based"}, "[3]": {"assay": "HepG2 cell cytotoxicity, dose response, cytotoxicity control, ATP luminescence, cherry-pick, set 6 (AID 1053125)", "assay_type": "functional, cell-based"}, "cells": {"assay": "cells", "conditions": "A549"}, "[4]": {"target": "T1, Corticotropin-releasing factor receptor 2/Corticotropin-releasing factor-binding protein (Homo sapiens, UniProt P24387+Q13324)", "T1 sequence (Q13324 whole entry)": "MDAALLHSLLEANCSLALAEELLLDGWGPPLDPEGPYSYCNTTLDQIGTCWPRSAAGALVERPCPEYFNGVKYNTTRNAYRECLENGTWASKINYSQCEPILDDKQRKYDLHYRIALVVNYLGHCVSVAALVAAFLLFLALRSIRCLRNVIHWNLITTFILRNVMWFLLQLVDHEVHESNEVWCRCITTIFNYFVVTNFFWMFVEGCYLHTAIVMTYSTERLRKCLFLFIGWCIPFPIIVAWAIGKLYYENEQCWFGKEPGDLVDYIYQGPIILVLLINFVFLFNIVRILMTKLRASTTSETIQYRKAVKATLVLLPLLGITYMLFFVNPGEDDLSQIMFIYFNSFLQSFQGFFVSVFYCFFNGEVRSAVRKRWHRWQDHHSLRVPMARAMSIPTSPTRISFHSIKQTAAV", "T1 sequence (P24387 whole entry)": "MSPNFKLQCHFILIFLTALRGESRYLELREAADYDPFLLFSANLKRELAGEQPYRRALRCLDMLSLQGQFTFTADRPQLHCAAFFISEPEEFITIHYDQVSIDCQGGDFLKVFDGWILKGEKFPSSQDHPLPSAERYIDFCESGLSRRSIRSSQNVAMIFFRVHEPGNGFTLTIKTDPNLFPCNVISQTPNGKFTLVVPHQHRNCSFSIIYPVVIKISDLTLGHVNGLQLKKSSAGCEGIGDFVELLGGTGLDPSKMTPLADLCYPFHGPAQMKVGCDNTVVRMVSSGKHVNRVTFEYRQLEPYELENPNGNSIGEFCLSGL", "assay": "activators of CRF receptor 2 with binding protein – uHTS hits, confirmation (AID 602473)", "assay_type": "functional", "conditions": "read-out: EC50_Mean"}, "[5]": {"target": "Photoreceptor-specific nuclear receptor (Homo sapiens, UniProt Q9Y5X4)", "sequence (Q9Y5X4 whole entry)": "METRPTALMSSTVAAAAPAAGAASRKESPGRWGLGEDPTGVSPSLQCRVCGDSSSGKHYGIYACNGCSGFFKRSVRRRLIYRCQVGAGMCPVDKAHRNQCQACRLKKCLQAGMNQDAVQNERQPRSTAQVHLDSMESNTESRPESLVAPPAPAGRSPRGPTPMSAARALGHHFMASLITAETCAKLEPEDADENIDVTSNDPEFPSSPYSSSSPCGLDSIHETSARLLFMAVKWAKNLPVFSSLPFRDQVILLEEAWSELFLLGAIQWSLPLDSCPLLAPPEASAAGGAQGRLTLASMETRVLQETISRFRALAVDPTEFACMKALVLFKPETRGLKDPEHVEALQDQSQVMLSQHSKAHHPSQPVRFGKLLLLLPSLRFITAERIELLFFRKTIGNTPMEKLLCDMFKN", "assay_type": "functional, cell-based"}, "[6]": {"target": "COUP transcription factor 2 (Homo sapiens, UniProt P24468)", "sequence (P24468 whole entry)": "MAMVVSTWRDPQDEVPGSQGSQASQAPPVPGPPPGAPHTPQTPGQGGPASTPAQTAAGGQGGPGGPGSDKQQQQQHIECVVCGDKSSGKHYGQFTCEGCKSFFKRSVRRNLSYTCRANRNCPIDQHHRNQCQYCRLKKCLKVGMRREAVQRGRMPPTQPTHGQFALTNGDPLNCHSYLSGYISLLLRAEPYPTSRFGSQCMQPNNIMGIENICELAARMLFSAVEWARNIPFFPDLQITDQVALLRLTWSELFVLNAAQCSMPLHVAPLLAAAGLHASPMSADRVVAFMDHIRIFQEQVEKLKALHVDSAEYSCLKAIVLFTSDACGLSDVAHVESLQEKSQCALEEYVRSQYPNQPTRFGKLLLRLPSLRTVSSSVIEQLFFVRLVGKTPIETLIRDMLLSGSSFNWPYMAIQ", "assay": "Luminescence-based cell-based high throughput dose response assay to identify inhibitors of COUP-TFII (NR2F2).", "assay_type": "functional"}, "[7]": {"assay": "A549 cell cytotoxicity, dose response, cytotoxicity control, cherry-picks, 26 µM top dose (AID 1053119)", "assay_type": "functional, cell-based"}, "[8]": {"assay": "inhibitors of fibronectin matrix deposition, dose response, AH1F cells, Alexa488-FN fluorescence, cherry-picks (AID 1035475)", "assay_type": "functional, cell-based"}, "[9]": {"assay": "HEK293 cell cytotoxicity, dose response, cytotoxicity control, cherry-picks, set 5 (AID 1053117)", "assay_type": "functional, cell-based"}, "HEK293": {"tested_on": "HEK293", "assay": "HEK293T cell cytotoxicity, dose response, cytotoxicity control, ATP luminescence, cherry-pick samples (AID 687005);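 note: cells exposed to compound for 48 hours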", "assay_type": "functional, cell-based", "conditions": "Homo sapiens"}, "HeLa": {"tested_on": "HeLa", "assay": "HeLa cell cytotoxicity, dose response, cytotoxicity control, ATP luminescence, cherry-pick samples (AID 687004)", "assay_type": "functional, cell-based", "conditions": "Homo sapiens"}, "[10]": {"assay": "HEK293 Cytotoxicity Assay Measured in Cell-Based System Using Plate Reader - 7071-01_Inhibitor_Dose_CherryPick_Activity_Set2.", "assay_type": "functional"}, "[11]": {"assay": "HepG2 cell cytotoxicity, dose response, cytotoxicity control, cherry-picked samples (AID 1159577)", "assay_type": "functional, cell-based"}, "[12]": {"assay": "P. falciparum Dd2 growth inhibitors, dose response, SYBR Green, cherry-picked samples (AID 1159567)", "assay_type": "functional, cell-based"}}, "note": "The source made the active and inactive calls. Cut-off read from the data, not from the text of the source, for most assays here: actives have a measured AC50 and inactives only a lower limit."}
{"compound": "CC1CCN(S(=O)(=O)c2ccc(C(=O)Nc3nnc(C4=COCCO4)o3)cc2)CC1", "values": [{"measurement": "AC50", "setting": "[1]", "value": "48.7 µM (active)"}, {"measurement": "AC50", "setting": "[2]", "value": "> 52 µM (inactive)"}]}
{"compound": "CCCCCCc1cc2cc(S(=O)(=O)c3ccc(F)cc3)c(=O)oc2cc1O", "values": [{"measurement": "AC50", "setting": "[3]", "value": "50.4 µM (active)"}, {"measurement": "AC50", "setting": "cells", "value": "42.1 µM (active)"}, {"measurement": "EC50", "setting": "[4]", "value": "> 53 µM (inactive)"}]}
{"compound": "OC[C@@H]1CN(Cc2ccc(-c3ccccc3)cc2)C[C@H](n2cnc3c(NCc4ccncc4)ncnc32)O1", "values": [{"measurement": "IC50", "setting": "[5]", "value": "1.52 µM (active)"}, {"measurement": "IC50", "setting": "[6]", "value": "10 µM (inactive)"}]}
{"compound": "CCOc1cccc(C(=O)Nc2ccc(N(CC)CC)cc2)c1", "values": [{"measurement": "AC50", "setting": "[7]", "value": "> 52 µM (inactive)"}, {"measurement": "AC50", "setting": "[8]", "value": "64.4 µM (active)"}, {"measurement": "AC50", "setting": "[9]", "value": "34.6 µM (active)"}]}
{"compound": "COc1ccc(CN(C)C[C@H]2Oc3ccc(NC(=O)Nc4ccc(F)cc4)cc3CC(=O)N([C@@H](C)CO)C[C@@H]2C)cc1", "values": [{"measurement": "AC50", "setting": "HEK293", "value": "26.3 µM (active)"}, {"measurement": "AC50", "setting": "HeLa", "value": "> 52 µM (inactive)"}, {"measurement": "AC50", "setting": "[10]", "value": "26.3 µM (active)"}]}
{"compound": "OC[C@H]1Nc2ccc(-c3cccc(F)c3)cc2[C@@H]2[C@H]1CCN2Cc1ccc(F)cc1", "values": [{"measurement": "AC50", "setting": "[11]", "value": "> 39 µM (inactive)"}, {"measurement": "AC50", "setting": "[12]", "value": "4.27 µM (active)"}]}
